Results taken from patent publication US11730731B2 (INVENTAGE LAB INC., priority 2021, dated 2023).

Experiments:
[1] = test system: inflammatory mediators in arthritis tissue (IL-1β, IL-6, IL-17, TNF-α, MCP-1, MIP-2, IL-2); experiment: Multiplex protein immunoassay (Luminex multi-analyte-ELISA) of inflammatory mediators in arthritic tissue; assay type: in vivo, mouse; conditions: for ELISA values in Arthritis Paw, IL-1β, Mean / ELISA values in Arthritis Paw, IL-6, Mean / ELISA values in Arthritis Paw, IL-17, Mean / ELISA values in Arthritis Paw, TNF-α, Mean: CIA mice, Example 3, positive control groups (MTX, Xeljanz); for MCP-1, ELISA values in Arthritis Paw (pg/mL) Mean / MIP-2, ELISA values in Arthritis Paw (pg/mL) Mean: MTX 1 mg/kg ip twice/week, MTX 1 mg/kg + Q-DDS 3 mg/mouse
From the text: In order to evaluate the inflammatory activity and confirm the mode of action of the test substance through quantitative analysis of inflammatory substances in mouse arthritis tissue and blood, inflammatory mediators were investigated at the protein level. In order to overcome the limitation of the amount of sample that can be extracted for protein analysis, a multi-analyte-ELISA (multi-analyte-ELISA) method based on Luminex technology was used to analyze the largest amount of protein in a small sample.
(§1) The mouse joint tissue obtained after treatment with the test substance in the method of Example 3.1 was pulverized through ceramic beads, and all proteins were extracted using a lysis buffer (Cat. 1713040111, Bio-Rad). Using Pro-reagent kit V, the same amount of protein (2.7 mg/mL) for each administration group was diluted ¼ and reacted with the target-binding beads in a culture dish for 30 minutes. After washing with a wash buffer, it was reacted with the target-measurement antibody for 30 minutes, and after washing with a wash buffer again, it was reacted with streptavidin-PE for 10 minutes. Thereafter, the target protein is quantitatively measured for each administration group using the Bio-Plex® 200 system (Bio-Rad). The target-binding beads were composed of a set that can be combined as needed from Bio-Plex Mouse cytokine 4-plex (IL-1β, IL-6, IL-17A, TNF-α; Cat. 171G5002M), Bio-Plex Pro Mouse Cytokine 1-plex (MCP1; Cat. 171G5019M), Bio-Plex Pro Mouse Cytokine II 1-plex (MIP2; Cat 171G6006M), and Bio-Plex Pro Mouse Cytokine 1-plea (IL-6; Cat. 171 G5007M) (all products are from Bio Rad) and were used for measurement.
For the measurement result, paw tissue weight of the mouse was corrected for the quantified target protein. For each target joint, the hind paw was mainly used, and in order to overcome the limitation of the amount of protein extracted from the joint tissue, up to 4 inflammatory mediators were measured in one well.
On the other hand, as the target protein to be measured, a representative inflammation-promoting cytokine group A (IL-1β, IL-6, IL-17, and TNF-α) among inflammatory mediators, and a chemokine group B (MCP-1 and MIP-2) among inflammatory mediators was selected to carry out the experiment. The measurement results were summarized in FIGS. 12A and 12B, and Tables 19 and 20 below. […]
as §1, with “4.1. above” for “3.1”, “171 G5002M),” for “171G5002M),”, “Cat. 171 G6006M),” for “Cat 171G6006M),”, “1-plex” for “1-plea”, “171G5007M)” for “171 G5007M)”
On the other hand, as the target protein to be measured, a representative inflammation-promoting cytokine group A (IL-1β, IL-6, IL-17, and TNF-α) among inflammatory mediators, and IL-2 and a chemokine group B (IL-2, MCP-1 and MIP-2) among inflammatory mediators were selected to carry out the experiment. The measurement results were summarized in FIGS. 18A and 18B, and Tables 29 and 30 below.

IL-6 = experiment: Multiplex protein immunoassay of IL-6 in serum of CIA mice; assay type: in vivo, mouse; conditions: Example 3, positive control groups (MTX, Xeljanz)
Procedure: For the measurement result, paw tissue weight of the mouse was corrected for the quantified amount of IL-6 protein. For each target joint, the hind paw was mainly used, and in order to overcome the limitation of the amount of protein extracted from the joint tissue, up to 4 inflammatory mediators were measured in one well. […]

[2] = test system: murine collagen-induced arthritis (CIA); experiment: Imaging evaluation of arthritis using micro-CT, CIA mice; assay type: in vivo; conditions: Example 3, CIA mouse; MTX 1 mg/kg ip twice/week; Xeljanz 10 mg/kg oral once/day; MTX 1 mg/kg + Q-DDS 3 mg/mouse
Procedure: (§2) The radiographs were 3D rendered using the Quantum FX μCT imaging system (Perkin Elmer, MA), and then the radiological score was evaluated, and the bone volume ratio (Bone volume [BV]/Tissue volume [Tissue volume; TV]) and bone surface density (Bone surface area (BS)/Bone volume (BV)) were also measured. Two or more investigators performed blind evaluation for joint destruction, and the indicators in Table 17 below were used as the scoring criteria. The average value of the researchers' blind evaluation data was used as the score, and the average score of the paw tissue was calculated as the score of each group.
as §2, with “[BV]/Tissue” for “[BV]/Tissue volume [Tissue”, “TV)” for “TV])”, “(BV)), and cortical bone thickness” for “(BV))”, “researchers” for “investigators”, “above” for “below”

MD2 protein = target: T1, MD2 protein (Homo sapiens, UniProt Q9Y6Y9); experiment: Surface plasmon resonance analysis of binding to MD2; conditions: binding gradually increased as the concentration of naltrexone increased
T1 construct: purchased R&D systems (Minneapolis, Minn., USA)
T1 sequence (Q9Y6Y9 19-160): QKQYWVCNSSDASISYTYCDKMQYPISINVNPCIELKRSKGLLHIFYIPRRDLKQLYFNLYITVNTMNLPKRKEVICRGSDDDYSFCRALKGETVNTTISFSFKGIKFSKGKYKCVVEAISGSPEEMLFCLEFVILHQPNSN

[3] = test system: pro-inflammatory cytokines (TNF-α, IL-1β, IL-6, IL-17, iNOS) in SW982 cells; experiment: RT-qPCR of LPS-induced pro-inflammatory cytokine expression in SW982 cells; conditions: 6 hours
From the text: (§3) Lipopolysaccharide (LPS) was purchased from Sigma-Aldrich (St. Louis, Mo., USA).

[4] = test system: pro-inflammatory cytokines (TNF-α, IL-1β, IL-6, IL-17, iNOS) in Raw 264.7 cells; experiment: RT-qPCR of LPS-induced pro-inflammatory cytokine expression in Raw 264.7 cells; conditions: 6 hours
From the text: as §3

[5] = Example 3, CIA mouse joint tissue, Xeljanz 10 mg/kg oral once/day
[6] = LPS 1 ug/ml, 0.5, 1, 10, 100 uM
[7] = LPS 1 ug/ml, naltrexone 200 or 500 ug/ml

Structure (SMILES) | ELISA values in Arthritis Paw, IL-1β, Mean [1] [pg/mL] | ELISA values in Arthritis Paw, IL-6, Mean [1] [pg/mL] | ELISA values in Arthritis Paw, IL-17, Mean [1] [pg/mL] | ELISA values in Arthritis Paw, TNF-α, Mean [1] [pg/mL] | MCP-1, ELISA values in Arthritis Paw (pg/mL) Mean [1, 5] [pg/mL] | MIP-2, ELISA values in Arthritis Paw (pg/mL) Mean [1, 5] [pg/mL] | ELISA values in Serum, IL-6, Mean (IL-6) [pg/mL] | Bone surface area/bone volume (mm^−1) Mean (micro-CT) [2] [mm^−1] | Bone volume/tissue volume (%) Mean (micro-CT) [2] [%] | Radiological score Mean (joint destruction, micro-CT) [2] | binding to MD2 (surface plasmon resonance) (MD2 protein) | cytokine inhibitory activity, naltrexone compared with 6β-naltrexol [3, 6] | expression of cytokines (iNOS, IL-1β, IL-6, TNF-α) induced by LPS [3, 6] | expression of pro-inflammatory cytokines (TNF-α, IL-1β, IL-6, IL-17, iNOS) increased by LPS [3, 7] | expression of cytokines (iNOS, IL-1β, IL-6, TNF-α) induced by LPS [4, 6] | expression of pro-inflammatory cytokines (TNF-α, IL-1β, IL-6, IL-17, iNOS) increased by LPS [4, 7] | IL-17 protein in arthritis tissue [1, 5] [pg/mL] | TNF-α protein in arthritis tissue [1, 5] [pg/mL]
CN(Cc1cnc2nc(N)nc(N)c2n1)c1ccc(C(=O)N[C@@H](CCC(=O)O)C(=O)O)cc1 [Methotrexate, methotrexate] | 1.05 | 1.8 | 2.269 | 6.54 | 76.1 | 4.4 | 39.6 | 6.12 | 31.25 | 1.67 |  |  |  |  |  |  |  | 
O=C1CC[C@@]2(O)[C@H]3Cc4ccc(O)c5c4[C@@]2(CCN3CC2CC2)[C@H]1O5 [Naltrexone, 17-(cyclopropylmethyl)-4,5α-epoxy-3,14-dihydroxymorphinan-6-one] |  |  |  |  |  |  |  |  |  |  | binds to the MD2 protein | superior cytokine inhibitory activity than the metabolite 6β-naltrexol | suppressed at all concentrations | significantly inhibited | suppressed at all concentrations | significantly inhibited |  | 
C[C@@H]1CCN(C(=O)CC#N)C[C@@H]1N(C)c1ncnc2[nH]ccc12 [Xeljanz ®, Tofacitinib] | 12.68 | 88.6 | 4.57 | 24.52 | 207.9 | 126.8 | 94.5 | 6.52 | 25.27 | 2.08 |  |  |  |  |  |  | 4.57 | 24.52
